The source of these data is PubChem BioAssay (NCI).

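All cell lines were grown in 96-well plates and treated with compound for 48 hours. The concentration for 50% growth inhibition is given as GI50. At the TGI there is no net growth.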 Bounds are passed on as bounds.

Test systems include T-47D breast; HCC-2998 colon; LOX IMVI melanoma; RPMI-8226 leukemia; HOP-92 NSCLC; KM12 colon; HS 578T breast; UACC-257 melanoma; EKVX NSCLC; MDA-MB-435.
What all share (experiment): inhibition of tumour cell growth, NCI panel, 48 h

In the case of `NCCN1CCN(c2nccc(-c3ccc4ccccc4c3)n2)CC1`, the GI50 with T-47D breast is 1.88 µM; in the test with HCC-2998 colon, 1.74 µM; with LOX IMVI melanoma, 1.76 µM; in the test with RPMI-8226 leukemia, 2.08 µM; in the test on HOP-92 NSCLC it was 1.61 µM; in the test on KM12 colon, 1.85 µM. Besides, the GI50 with HS 578T breast was 1.73 µM; in the test with UACC-257 melanoma it was 1.86 µM; in the test on EKVX NSCLC, 1.83 µM; in the test on MDA-MB-435, 1.8 µM. For the same compound, the TGI was found to be 4.59 µM in the test with T-47D breast; 3.46 µM in the test on HCC-2998 colon; 3.31 µM in the test with LOX IMVI melanoma; 5.72 µM in the test with RPMI-8226 leukemia; 4.01 µM with HOP-92 NSCLC; 3.48 µM in the test on KM12 colon. In addition, the TGI was 4.37 µM in the test with HS 578T breast, 3.41 µM in the test on UACC-257 melanoma, 4.08 µM in the test on EKVX NSCLC and 3.25 µM in the test on MDA-MB-435.

For the compound `Cc1ncc(NC(=O)c2ccc(CN3CCN(C)CC3)c(C(F)(F)F)c2)cc1Nc1nccc(-c2cccnc2)n1`, the GI50 is 17.9 µM in the test with T-47D breast; 13.4 µM in the test on HCC-2998 colon; 1.64 µM in the test on LOX IMVI melanoma; 10 µM in the test with RPMI-8226 leukemia; 4.5 µM in the test with HOP-92 NSCLC; 15.3 µM in the test with KM12 colon. In addition, the GI50 was 17.7 µM in the test with HS 578T breast, 14.4 µM in the test on UACC-257 melanoma, 17.4 µM in the test with EKVX NSCLC and 12 µM with MDA-MB-435. In addition, the TGI came to 37.5 µM with T-47D breast; 26.6 µM in the test on HCC-2998 colon; 3.18 µM in the test with LOX IMVI melanoma; 49.7 µM in the test with RPMI-8226 leukemia; 21 µM with HOP-92 NSCLC; 30.2 µM in the test with KM12 colon. The TGI in the test with HS 578T breast is 45.7 µM; in the test with UACC-257 melanoma, 27.9 µM; with EKVX NSCLC it was 31.4 µM; with MDA-MB-435 it was 24.4 µM.

Turning to `CNC(=O)c1cn(C[C@H](F)CCc2ccc(NC(=O)Cc3cc(OC4CC(F)(F)C4)cc(C)n3)nn2)nn1`, the GI50 was more than 100 µM with T-47D breast; more than 100 µM in the test on HCC-2998 colon; more than 100 µM in the test with LOX IMVI melanoma; 5.65 µM with RPMI-8226 leukemia; 23 µM with HOP-92 NSCLC; more than 100 µM in the test with KM12 colon. The GI50 in the test with HS 578T breast is 5.37 µM; in the test on UACC-257 melanoma, more than 100 µM; in the test with EKVX NSCLC, more than 100 µM; in the test with MDA-MB-435, more than 100 µM. Moreover, the TGI in the test on T-47D breast, in the test with HCC-2998 colon, with LOX IMVI melanoma, in the test on RPMI-8226 leukemia, in the test with HOP-92 NSCLC and in the test on KM12 colon was more than 100 µM in each case. Moreover, the TGI with HS 578T breast, in the test with UACC-257 melanoma, in the test with EKVX NSCLC and with MDA-MB-435 was more than 100 µM each time.

Take `COC(=O)NC/C=C\c1nc(CC/C=C\C(=O)OC2CC3CC(=O)O[C@@H](/C=C/CC(C)C)C[C@@H]4CCC(C)C(C[C@@H](OC)CC(C2)O3)O4)co1` (some centres not stated): the GI50 was 45.7 µM with T-47D breast; less than 0.01 µM in the test on HCC-2998 colon; 0.091 µM in the test on LOX IMVI melanoma; less than 0.01 µM in the test with HOP-92 NSCLC; 2.67 µM in the test on KM12 colon; 32.8 µM in the test on HS 578T breast. The GI50 with UACC-257 melanoma is more than 100 µM; in the test with EKVX NSCLC, less than 0.01 µM; in the test on MDA-MB-435 it was less than 0.01 µM. In addition, the TGI with T-47D breast is more than 100 µM; in the test on HCC-2998 colon it was 19 µM; in the test on LOX IMVI melanoma, 61.9 µM; with HOP-92 NSCLC, 2.38 µM; in the test with KM12 colon, more than 100 µM; with HS 578T breast it was more than 100 µM. Moreover, the values for the TGI in the test on UACC-257 melanoma, in the test with EKVX NSCLC and with MDA-MB-435 were more than 100 µM, more than 100 µM and 50.1 µM, respectively.

On to `CC1=C(C)C(=O)O[C@@H]([C@](C)(O)[C@]2(O)CC[C@@]3(O)[C@@H]4C[C@H]5O[C@]56CC=CC(=O)[C@]6(C)[C@H]4CC[C@]23C)C1`, for which the GI50 is 0.111 µM in the test with T-47D breast; 0.772 µM with HCC-2998 colon; 0.188 µM in the test with LOX IMVI melanoma; 0.0593 µM with RPMI-8226 leukemia; 0.0651 µM in the test with HOP-92 NSCLC; 0.266 µM in the test with KM12 colon. Besides, the GI50 was 0.127 µM with HS 578T breast, 0.172 µM in the test with UACC-257 melanoma and 0.0541 µM with MDA-MB-435. For the same compound, the TGI in the test with T-47D breast amounted to 1.63 µM; in the test on HCC-2998 colon, 2.17 µM; with LOX IMVI melanoma, 1.38 µM; with RPMI-8226 leukemia, 1.78 µM; in the test on HOP-92 NSCLC, 1.91 µM; in the test on KM12 colon, 1.57 µM. For the same compound, the TGI in the test with HS 578T breast stood at 2.33 µM; in the test on UACC-257 melanoma, 2.33 µM; with MDA-MB-435 it was 1.08 µM.

Take `CNc1nc(NC2CCCC2)nc(Sc2ccc(OC)cc2)n1`: the GI50 is more than 10 µM in the test with T-47D breast; more than 10 µM in the test on HCC-2998 colon; more than 10 µM in the test with LOX IMVI melanoma; more than 10 µM in the test with RPMI-8226 leukemia; 1.09 µM with HOP-92 NSCLC; more than 10 µM with KM12 colon. Also, the GI50 in the test with HS 578T breast, with UACC-257 melanoma and with MDA-MB-435 was more than 10 µM each time. For the same compound, the TGI with T-47D breast was more than 10 µM; with HCC-2998 colon, more than 10 µM; in the test with LOX IMVI melanoma, more than 10 µM; in the test on RPMI-8226 leukemia it was more than 10 µM; in the test on HOP-92 NSCLC it was 9.5 µM; in the test with KM12 colon it was more than 10 µM. The TGI in the test with HS 578T breast, with UACC-257 melanoma and in the test with MDA-MB-435 was more than 10 µM throughout.

On to `COC(=O)C(Cc1ccccc1)N/C=C\C(=O)c1ccc(Cl)cc1` (configuration not stated), for which the GI50 is 37 µM in the test on T-47D breast; 18.5 µM in the test with HCC-2998 colon; 19.6 µM in the test with LOX IMVI melanoma; 36.7 µM with RPMI-8226 leukemia; 43.7 µM in the test on HOP-92 NSCLC; 21.2 µM in the test with KM12 colon. The figures for the GI50 with HS 578T breast, with UACC-257 melanoma and with MDA-MB-435 were 25 µM, 26.5 µM and 14.1 µM, respectively. Also, the TGI in the test on T-47D breast is more than 100 µM; in the test on HCC-2998 colon it was 40.1 µM; in the test with LOX IMVI melanoma, 39.4 µM; with RPMI-8226 leukemia it was more than 100 µM; in the test on HOP-92 NSCLC, more than 100 µM; with KM12 colon, 47.1 µM. Besides, the TGI with HS 578T breast was found to be 63.8 µM; in the test on UACC-257 melanoma it was 67.1 µM; in the test with MDA-MB-435, 30.8 µM.
